The target of the test is T1, hOX2R (Homo sapiens, UniProt O43614).
T1 construct: expressed in transfected cells; host or cells: CHO cells (G418 selection)
T1 sequence (O43614 1-444): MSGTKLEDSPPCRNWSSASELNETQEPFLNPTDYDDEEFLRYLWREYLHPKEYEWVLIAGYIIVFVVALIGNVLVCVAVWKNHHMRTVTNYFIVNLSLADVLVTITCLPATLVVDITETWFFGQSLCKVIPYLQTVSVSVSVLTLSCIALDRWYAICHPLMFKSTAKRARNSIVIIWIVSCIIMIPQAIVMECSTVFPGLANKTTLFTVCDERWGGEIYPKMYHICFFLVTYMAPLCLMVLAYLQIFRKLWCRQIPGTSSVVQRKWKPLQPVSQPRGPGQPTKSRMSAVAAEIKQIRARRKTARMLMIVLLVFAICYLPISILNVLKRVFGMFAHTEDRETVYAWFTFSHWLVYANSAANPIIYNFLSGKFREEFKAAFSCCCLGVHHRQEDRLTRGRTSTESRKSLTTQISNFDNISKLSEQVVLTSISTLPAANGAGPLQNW
The experiment in a line: hOX2R IPone assay (orexin receptor agonism). In kind it is cell-based. The note with it: IPone readout; for hOX2R_Ipone max %act: maximal activation; for EC50: orexin receptor agonist, read-out: hOX2R_IPone EC50.

Turning to `CCN1C(=O)N[C@@H](CCC(F)(F)F)CCCCCOc2nc(cc3cccnc23)-c2cc(ncc2OC)[C@H]1C` [Example 162, (3R,7R)-4-ethyl-25-methoxy-3-methyl-7-(3,3,3-trifluoropropyl)-13-oxa-4,6-diaza-1(6,8)-naphthyridina-2(4,2)-pyridinacyclotridecaphan-5-one], the hOX2R_Ipone max %act was 104.8% and the EC50 was 5.9 nM.

With `CCN1C(=O)N[C@@H](CCC(F)(F)F)C/C=C/CCOc2nc(cc3cccnc23)-c2cc(ncc2OC)[C@H]1C` [Example 163, (3R,7S,E)-4-ethyl-25-methoxy-3-methyl-7-(3,3,3-trifluoropropyl)-13-oxa-4,6-diaza-1(6,8)-naphthyridina-2(4,2)-pyridinacyclotridecaphan-9-en-5-one], the hOX2R_Ipone max %act is recorded as 104.4% and the EC50 stood at 10.9 nM.

Regarding `CCN1C(=O)N[C@@H](CCC(F)(F)F)CCOCCOc2nc(cn3ncnc23)-c2cc(ncc2OC)[C@H]1C` [Example 164, (3R,7S,E)-4-ethyl-25-methoxy-3-methyl-7-(3,3,3-trifluoropropyl)-10,13-dioxa-4,6-diaza-1(6,8)-[1,2,4]triazolo[1,5-a]pyrazina-2(4,2)-pyridinacyclotridecaphan-5-one], the hOX2R_Ipone max %act worked out at 100.1% and the EC50 is 2.62 nM.

`CCN1C(=O)N[C@@H](CCC(F)(F)F)CCCCCOc2cc(nn3cc(C)nc23)-c2cc(ncc2OC)[C@H]1C` [Example 166, (3R,7R,E)-4-ethyl-25-methoxy-12,3-dimethyl-7-(3,3,3-trifluoropropyl)-13-oxa-4,6-diaza-1(6,8)-imidazo[1,2-b]pyridazina-2(4,2)-pyridinacyclotridecaphan-5-one]: the hOX2R_Ipone max %act turned out to be 102% and the EC50 came out at 15.1 nM.

On to `CCN1C(=O)N[C@@H](CCC(F)(F)F)CCCCCOc2cc(nn3c(C)cnc23)-c2cc(ncc2OC)[C@H]1C` [Example 168, (3R,7R,E)-4-ethyl-25-methoxy-13,3-dimethyl-7-(3,3,3-trifluoropropyl)-13-oxa-4,6-diaza-1(6,8)-imidazo[1,2-b]pyridazina-2(4,2)-pyridinacyclotridecaphan-5-one], for which the hOX2R_Ipone max %act turned out to be 99.31% and the EC50 stood at 2.33 nM.

Take `CCN1C(=O)N[C@@H](CCC(C)(F)F)CCOCCOc2nc(cc3ncnn23)-c2cc(ncc2OC)[C@H]1C` [Example 169, (3R,E)-7-(3,3-difluorobutyl)-4-ethyl-25-methoxy-3-methyl-10,13-dioxa-4,6-diaza-1(7,5)-[1,2,4]triazolo[1,5-c]pyrimidina-2(4,2)-pyridinacyclotridecaphan-5-one]: the hOX2R_Ipone max %act is listed as 111.8% and the EC50 was 3.36 nM.

`CCN1C(=O)N[C@@H](CCC(C)(F)F)CCOCCOc2nc(cc3c(C)cnn23)-c2cc(ncc2OC)[C@H]1C` [Example 171, (3R,7S,E)-7-(3,3-difluorobutyl)-4-ethyl-25-methoxy-3-methyl-9,13-dioxa-4,6-diaza-1(5,7)-pyrazolo[1,5-c]pyrimidina-2(4,2)-pyridinacyclotridecaphan-5-one]: the hOX2R_Ipone max %act is reported as 107.9% and the EC50 was 1.45 nM.

On to `CCN1C(=O)NC(CCC(C)(F)F)CCCCCOc2nc(c(C)n3ncnc23)-c2cc(ncc2OC)C1C` [Example 172, (3R,7R,E)-7-(3,3-difluorobutyl)-4-ethyl-25-methoxy-15,3-dimethyl-13-oxa-4,6-diaza-1(6,8)-[1,2,4]triazolo[1,5-a]pyrazina-2(4,2)-pyridinacyclotridecaphan-5-one], for which the hOX2R_Ipone max %act was found to be 101% and the EC50 came to 7.2 nM.

For `CCN1C(=O)N[C@@H](CCC(F)(F)F)COCCCOc2nc(cn3cnnc23)-c2cc(ncc2OC)[C@H]1C` [Example 173, (3R,7S,E)-4-ethyl-25-methoxy-3-methyl-7-(3,3,3trifluoropropyl)-9,13-dioxa-4,6-diaza-1(6,8)-[1,2,4]triazolo[4,3-a]pyrazina-2(4,2)-pyridinacyclotridecaphan-5-one], the hOX2R_Ipone max %act turned out to be 103.9% and the half-maximal effective concentration (EC50) worked out at 3.71 nM.

Turning to `CCN1C(=O)N[C@@H](CCC(F)(F)F)COCCCOc2nc(cn3ncnc23)-c2cc(ncc2OC)[C@H]1C` [Example 174, (3R,7S,E)-4-ethyl-25-methoxy-3-methyl-7-(3,3,3-trifluoropropyl)-9,13-dioxa-4,6-diaza-1(6,8)-[1,2,4]triazolo[1,5-a]pyrazina-2(4,2)-pyridinacyclotridecaphan-5-one], the hOX2R_Ipone max %act was 103.8% and the EC50 was determined as 3.08 nM.

As for `CCN1C(=O)N[C@@H](CCC(C)(F)F)CCCCCOc2nc(cc3ncnn23)-c2cc(ncc2OC)[C@H]1C` [Example 176], the hOX2R_Ipone max %act came to 99.6% and the EC50 stood at 2.97 nM.

Regarding `CCN1C(=O)NCCCCCCCOc2nc(cn3ccnc23)-c2cc(ncc2OC)[C@H]1C` [Example 177, (R,E)-4-ethyl-25-methoxy-3-methyl-14-oxa-4,6-diaza-1(6,8)-imidazo[1,2-a]pyrazina-2(4,2)-pyridinacyclo-tetradecaphan-5-one], the hOX2R_Ipone max %act is listed as 100.5% and the EC50 is 62.5 nM.

On to `CCN1C(=O)NCCCCOc2nc(cn3ccnc23)-c2cc(ncc2OC)[C@H]1C` [Example 178, (R,E)-4-ethyl-25-methoxy-3-methyl-11-oxa-4,6-diaza-1(6,8)-imidazo[1,2-a]pyrazina-2(4,2)-pyridinacycloun-decaphan-5-one], for which the hOX2R_Ipone max %act amounted to 88% and the EC50 was found to be 325 nM.

`CCN1C(=O)N[C@@H](CCC(F)(F)F)CCOCCOc2nc(cn3ncnc23)-c2c(OC)cnc(c2F)C1C` (stereo partly drawn) [Example 179, (7S,E)-4-ethyl-23-fluoro-25-methoxy-3-methyl-7-(3,3,3-trifluoropropyl)-10,13-dioxa-4,6-diaza-1(6,8)-[1,2, 4]triazolo[1,5-a]pyrazina-2(4,2)-pyridinacyclotridecaphan-5-one]: the hOX2R_Ipone max %act is on record as 100.8% and the EC50 came to 8.24 nM.

As to `CCN1C(=O)N[C@@H](CCC(C)(F)F)CCOCCOc2nc(cn3ncnc23)-c2ccnc(c2)[C@H]1C` [Example 180], the hOX2R_Ipone max %act was found to be 100.8% and the 50% effective concentration (EC50) is 4.15 nM.

`CCN1C(=O)NC(CCOC(F)F)CCCCCOc2nc(cn3ccnc23)-c2cc(ncc2OC)[C@H]1C` (stereo partly drawn) [Example 182, (3R,E)-7-(2-(difluoromethoxy)ethyl)-4-ethyl-25-methoxy-3-methyl-13-oxa-4,6-diaza-1(6,8)-imidazo[1,2-a]pyrazina-2(4,2)-pyridinacyclotridecaphan-5-one]: the hOX2R_Ipone max %act was found to be 98.9% and the EC50 was found to be 0.85 nM.

`CCN1C(=O)NC(CC2(F)CC2)CCCCCOc2nc(cn3ccnc23)-c2cc(ncc2OC)[C@H]1C` (stereo partly drawn) [Example 183, (3R,E)-4-ethyl-7-((1-fluorocyclopropyl)methyl)-25-methoxy-3-methyl-13-oxa-4,6-diaza-1(6,8)-imidazo[1,2-a]pyrazina-2(4,2)-pyridinacyclotridecaphan-5-one]: the hOX2R_Ipone max %act is 100.2% and the EC50 stood at 1 nM.

For the compound `CCN1C(=O)NC(CCCC(F)F)CCCCCOc2nc(cn3ccnc23)-c2cc(ncc2OC)[C@H]1C` (stereo partly drawn) [Example 184, (3R,E)-7-(4,4-difluorobutyl)-4-ethyl-25-methoxy-3-methyl-13-oxa-4,6-diaza-1(6,8)-imidazo[1,2-a]pyrazina-2(4,2)-pyridinacyclotridecaphan-5-one], the hOX2R_Ipone max %act was determined as 101.1% and the EC50 amounted to 0.78 nM.

Regarding `CCN1C(=O)NC(COC(C)C)CCCCCOc2nc(cn3ccnc23)-c2cc(ncc2OC)[C@H]1C` (stereo partly drawn) [Example 185, (3R,E)-4-ethyl-7-(isopropoxymethyl)-25-methoxy-3-methyl-13-oxa-4,6-diaza-1(6,8)-imidazo[1,2-a]pyrazina-2(4,2)-pyridinacyclotridecaphan-5-one], the hOX2R_Ipone max %act was 102.1% and the EC50 amounted to 2.03 nM.

As for `CCN1C(=O)NC(CC(F)F)CCCCCOc2nc(cn3ccnc23)-c2cc(ncc2OC)[C@H]1C` (stereo partly drawn) [Example 186, (3R,E)-7-(2,2-difluoroethyl)-4-ethyl-25-methoxy-3-methyl-13-oxa-4,6-diaza-1(6,8)-imidazo[1,2-a]pyrazina-2(4,2)-pyridinacyclotridecaphan-5-one], the hOX2R_Ipone max %act came to 102.3% and the EC50 turned out to be 1.02 nM.

Regarding `CCN1C(=O)NC(COCC(F)(F)F)CCCCCOc2nc(cn3ccnc23)-c2cc(ncc2OC)[C@H]1C` (stereo partly drawn) [Example 188, (3R,E)-4-ethyl-25-methoxy-3-methyl-7-((2,2,2-trifluoroethoxy)methyl)-13-oxa-4,6-diaza-1(6,8)-imidazo [1,2-a]pyrazina-2(4,2)-pyridinacyclotridecaphan-5-one], the hOX2R_Ipone max %act was 100.6% and the half-maximal effective concentration (EC50) came to 0.74 nM.

For the compound `CCN1C(=O)NC(C2CCOC2)CCCCCOc2nc(cn3ccnc23)-c2cc(ncc2OC)[C@H]1C` (stereo partly drawn) [Example 189, (3R,E)-4-ethyl-25-methoxy-3-methyl-7-(tetrahydrofuran-3-yl)-13-oxa-4,6-diaza-1(6,8)-imidazo[1,2-a]pyrazina-2(4,2)-pyridinacyclotridecaphan-5-one], the hOX2R_Ipone max %act worked out at 99.85% and the EC50 turned out to be 0.69 nM.

`CCN1C(=O)NC(C(C)OC)CCCCCOc2nc(cn3ccnc23)-c2cc(ncc2OC)[C@H]1C` (stereo partly drawn) [Example 191, (3R,E)-4-ethyl-25-methoxy-7-(1-methoxyethyl)-3-methyl-13-oxa-4,6-diaza-1(6,8)-imidazo[1,2-a]pyrazina-2(4,2)-pyridinacyclotridecaphan-5-one]: the hOX2R_Ipone max %act is on record as 102.3% and the EC50 amounted to 1.73 nM.

The record behind these values is patent US12686690B2, “Macrocyclic urea orexin receptor agonists” (Merck Sharp & Dohme LLC, priority 2020, dated 2026).
